In test [1] the target is T1, human GLP-1R (Homo sapiens, UniProt P43220). The test is described as follows: Human GLP-1 Receptor HEK293 cell cAMP assay, 581 fmol/mg GLP-1R expression density. The test is classed as cell-based. Also noted: expressed in transfected cells; host or cells: HEK293 clonal cell line. Conditions: HEK293 cell line with 581 fmol/mg expression density of GLP-1R; for EC50: geometric mean, read-out: EC50 nM (SEM, n), intracellular cAMP response, relative EC50; for Emax: percent of maximal response to GLP-1(7-36)NH2, arithmetic mean, read-out: Emax % (SEM, n), intracellular cAMP response. How it is done: (§1) Human GLP-1 Receptor HEK293 Cell cAMP Assay
(§2) GLP-1 Receptor functional activity is determined using cAMP formation in an HEK293 clonal cell line expressing human GLP-1R (NCBI accession number NP_002053) at an expression density of 581±94 (n=6) and 104±12 (n=5) fmol/mg protein (determined using [^125I]GLP-1(7-36)NH2 homologous competition binding analysis). The hGLP-1R receptor expressing cells are treated with compound (20 point concentration-response curve in DMSO, 2.75-fold Labcyte Echo direct dilution, 384 well plate Corning Cat #3570) in DMEM (Gibco Cat #31053) supplemented with 1× GlutaMAX™ (Gibco Cat #35050), 0.1% bovine casein (Sigma C4765-10ML), 250 μM IBMX (3-Isobutyl-1-methylxanthine, Acros Cat #228420010) and 20 mM HEPES (Gibco Cat #15630) in a 20 μL assay volume (final DMSO concentration is 0.5%). After a 30 min incubation at 37° C., the resulting increase in intracellular cAMP is quantitatively determined using the CisBio cAMP Dynamic 2 HTRF Assay Kit (62AM4PEJ). Briefly, cAMP levels within the cell are detected by adding the cAMP-d2 conjugate in cell lysis buffer (10 μL) followed by the antibody anti-cAMP-Eu^3+-Cryptate, also in cell lysis buffer (10 μL). The resulting competitive assay is incubated for at least 60 min at RT, then detected using a PerkinElmer Envision® instrument with excitation at 320 nm and emission at 665 nm and 620 nm. Envision units (emission at 665 nm/620 nm*10,000) are inversely proportional to the amount of cAMP present and are converted to nM cAMP per well using a cAMP standard curve. The amount of cAMP generated (nM) in each well is converted to a percent of the maximal response observed with human GLP-1(7-36)NH2. A relative EC50 value and percent top (Emax) are derived by non-linear regression analysis using the percent maximal response vs. the concentration of compound added, fitted to a four-parameter logistic equation.
In general terms: Cyclic AMP is a second messenger, typically raised through Gs and lowered through Gi signalling.

Test [2] deals with T1, human GLP-1R. The experiment in a line: Human GLP-1 Receptor HEK293 cell cAMP assay, 104 fmol/mg GLP-1R expression density. The class given is cell-based. Also noted: expressed in transfected cells; host or cells: HEK293 clonal cell line. Conditions: HEK293 cell line with 104 fmol/mg expression density of GLP-1R; for EC50: geometric mean, read-out: EC50 nM (SEM, n), intracellular cAMP response, relative EC50; for Emax: percent of maximal response to GLP-1(7-36)NH2, arithmetic mean, read-out: Emax % (SEM, n), intracellular cAMP response. The method, then: as §1, §2

Each structure is given as a SMILES string. Where a name gives a salt, the structure may show the parent alone.

T1 sequence (P43220 24-463): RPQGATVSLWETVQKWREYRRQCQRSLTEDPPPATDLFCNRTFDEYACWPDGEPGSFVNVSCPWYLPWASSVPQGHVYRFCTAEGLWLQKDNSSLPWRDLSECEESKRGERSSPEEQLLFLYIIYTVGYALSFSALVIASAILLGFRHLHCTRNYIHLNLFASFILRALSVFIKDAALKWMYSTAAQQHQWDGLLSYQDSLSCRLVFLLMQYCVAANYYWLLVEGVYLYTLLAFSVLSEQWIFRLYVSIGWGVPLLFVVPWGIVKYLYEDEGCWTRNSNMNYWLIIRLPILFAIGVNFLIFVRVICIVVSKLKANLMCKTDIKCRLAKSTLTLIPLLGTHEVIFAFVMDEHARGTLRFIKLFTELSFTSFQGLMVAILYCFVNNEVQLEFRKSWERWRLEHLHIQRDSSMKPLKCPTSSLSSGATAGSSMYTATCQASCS

On to `N#Cc1ccc2c(c1)CCCOc1cc(ccc1Cc1nc3ccc(-c4nnn[nH]4)cc3n1C[C@@H]1CCO1)-c1cccc(n1)OC2` [Example 41, (S)-1^4-((1-(Oxetan-2-ylmethyl)-6-(1H-tetrazol-5-yl)-1H-benzo[d]imidazol-2-yl)methyl)-3,9-dioxa-2(2,6)-pyridina-1(1,3),5(1,2)-dibenzenacyclononaphane-5^4-carbonitrile], for which the concentration for a half-maximal effect (EC50) (usually the midpoint of the concentration-response curve) stood at 184 nM at human GLP-1R [1] and 713 nM on human GLP-1R [2]. Also, the maximal effect (Emax) (in general, the greatest response seen or fitted, relative to the assay's reference) at human GLP-1R [1] is 89.1%; on human GLP-1R [2], 60.3%.

Regarding `CS(=O)(=O)c1ccc(-c2ccc3c(c2)CCCOc2cc(ccc2Cc2nc4ccc(C(=O)O)cc4n2C[C@@H]2CCO2)-c2cccc(n2)OC3)cc1` [Example 33, (S)-2-((5^4-(4-(Methylsulfonyl)phenyl)-3,9-dioxa-2(2,6)-pyridina-1(1,3),5(1,2)-dibenzenacyclononaphane-1^4-yl)methyl)-1-(oxetan-2-ylmethyl)-1H-benzo[d]imidazole-6-carboxylic acid], at human GLP-1R [1], the EC50 is 40.8 nM and the Emax is 112%. Also, at human GLP-1R [2], the EC50 was determined as 111 nM and the Emax was 85%.

As to `CN(C)C(=O)COc1cc(C(=O)O)cc2c1nc(Cc1ccc3cc1OCCCc1cc(C#N)ccc1COc1cccc-3n1)n2C[C@@H]1CCO1` [Example 62, (S)-2-((5^4-Cyano-3,9-dioxa-2(2,6)-pyridina-1(1,3),5(1,2)-dibenzenacyclononaphane-1^4-yl)methyl)-4-(2-(dimethylamino)-2-oxoethoxy)-1-(oxetan-2-ylmethyl)-1H-benzo[d]imidazole-6-carboxylic acid], on human GLP-1R [1], the EC50 worked out at 285 nM and the Emax was determined as 62.2%. For the same compound, at human GLP-1R [2], the half-maximal effective concentration (EC50) was 737 nM and the Emax was 32.9%.

Turning to `COCCOc1cc(C(=O)O)cc2c1nc(Cc1cc(F)c3cc1COCCc1cc(C#N)cc(F)c1COc1cccc-3n1)n2C[C@@H]1CCO1` [Example 70, (S)-2-((5^4-Cyano-1^6,5^6-difluoro-3,8-dioxa-2(2,6)-pyridina-1(1,3),5(1,2)-dibenzenacyclononaphane-1^4-yl)methyl)-4-(2-methoxyethoxy)-1-(oxetan-2-ylmethyl)-1H-benzo[d]imidazole-6-carboxylic acid], at human GLP-1R [1], the EC50 was determined as 3.11 nM and the Emax came to 92.3%. Besides, at human GLP-1R [2], the EC50 worked out at 12.6 nM and the Emax came to 95%.

Regarding `COc1cc(C(=O)O)cc2c1nc(Cc1ccc3cc1OCCCc1cc(C#N)ccc1COc1cccc-3n1)n2Cc1ncco1` [Example 23, 2-((5^4-Cyano-3,9-dioxa-2(2,6)-pyridina-1(1,3),5(1,2)-dibenzenacyclononaphane-1^4-yl)methyl)-4-methoxy-1-(oxazol-2-ylmethyl)-1H-benzo[d]imidazole-6-carboxylic acid], on human GLP-1R [1], the 50% effective concentration (EC50) stood at 69.3 nM and the Emax amounted to 106%. Besides, on human GLP-1R [2], the EC50 was 344 nM and the Emax is 83.7%.

For the compound `O=C(O)c1ccc2nc(Cc3ccc4cc3OCCCc3cc(-c5cccnc5)ccc3COc3cccc-4n3)n(C[C@@H]3CCO3)c2c1` [Example 37, (S)-1-(Oxetan-2-ylmethyl)-2-((5^4-(pyridin-3-yl)-3,9-dioxa-2(2,6)-pyridina-1(1,3),5(1,2)-dibenzenacyclononaphane-1^4-yl)methyl)-1H-benzo[d]imidazole-6-carboxylic acid], the concentration for a half-maximal effect (EC50) at human GLP-1R [1] was 179 nM; at human GLP-1R [2] it was 506 nM. In addition, the Emax was found to be 103% on human GLP-1R [1] and 79.7% at human GLP-1R [2].

`CN(C)C(=O)c1ccc(-c2ccc3c(c2)CCCOc2cc(ccc2Cc2nc4ccc(C(=O)O)cc4n2C[C@@H]2CCO2)-c2cccc(n2)OC3)cc1` [Example 77, (S)-2-((5^4-(4-(Dimethylcarbamoyl)phenyl)-3,9-dioxa-2(2,6)-pyridina-1(1,3),5(1,2)-dibenzenacyclononaphane-1^4-yl)methyl)-1-(oxetan-2-ylmethyl)-1H-benzo[d]imidazole-6-carboxylic acid]: at human GLP-1R [1], the EC50 stood at 193 nM and the Emax was determined as 107%. Besides, at human GLP-1R [2], the EC50 came out at 724 nM and the Emax is 83%.

`O=C(O)c1ccc2nc(Cc3ccc4cc3OCCCc3cc(-c5ccc(CO)cc5)ccc3COc3cccc-4n3)n(C[C@@H]3CCO3)c2c1` [Example 39, (S)-2-((5^4-(4-(Hydroxymethyl)phenyl)-3,9-dioxa-2(2,6)-pyridina-1(1,3),5(1,2)-dibenzenacyclononaphane-1^4-yl)methyl)-1-(oxetan-2-ylmethyl)-1H-benzo[d]imidazole-6-carboxylic acid]: at human GLP-1R [1], the EC50 is 244 nM and the maximal response (Emax) worked out at 99%. For the same compound, on human GLP-1R [2], the EC50 was determined as 762 nM and the Emax was 76.6%.

Turning to `Cn1nccc1-c1ccc2c(c1)CCCOc1cc(ccc1Cc1nc3ccc(C(=O)O)cc3n1C[C@@H]1CCO1)-c1cccc(n1)OC2` [Example 31, (S)-2-((5^4-(1-Methyl-1H-pyrazol-5-yl)-3,9-dioxa-2(2,6)-pyridina-1(1,3),5(1,2)-dibenzenacyclononaphane-1^4-yl)methyl)-1-(oxetan-2-ylmethyl)-1H-benzo[d]imidazole-6-carboxylic acid], at human GLP-1R [1], the concentration for a half-maximal effect (EC50) was determined as 70.1 nM and the Emax came out at 104%. At human GLP-1R [2], the EC50 worked out at 251 nM and the Emax came out at 88.8%.

On to `COc1cc(C(=O)O)cc2c1nc(Cc1ccc3cc1COCCc1cc(C#N)ccc1COc1ccnc-3n1)n2C[C@@H]1CCO1` [Example 51, (S)-2-((5^4-Cyano-3,8-dioxa-2(2,4)-pyrimidina-1(1,3),5(1,2)-dibenzenacyclononaphane-1^4-yl)methyl)-4-methoxy-1-(oxetan-2-ylmethyl)-1H-benzo[d]imidazole-6-carboxylic acid], for which, at human GLP-1R [1], the EC50 is 41 nM and the Emax turned out to be 96.7%. Further, on human GLP-1R [2], the EC50 is 152 nM and the Emax was determined as 77.1%.

As for `COc1cc(C(=O)O)cc2c1nc(Cc1cc(F)c3cc1OCCCc1cc(C#N)cnc1COc1cccc-3n1)n2C[C@@H]1CCO1` [Example 43, (S)-2-((5^5-Cyano-1^6-fluoro-3,9-dioxa-2(2,6),5(2,3)-dipyridina-1(1,3)-benzenacyclononaphane-1^4-yl)methyl)-4-methoxy-1-(oxetan-2-ylmethyl)-1H-benzo[d]imidazole-6-carboxylic acid diformate salt], the results for the EC50 on human GLP-1R [1] and on human GLP-1R [2] were 48.6 nM and 194 nM, respectively. Further, the maximal response (Emax) on human GLP-1R [1] came out at 86.9%; on human GLP-1R [2], 72%.

Turning to `COCCOc1cc(C(=O)O)cc2c1nc(Cc1ccc3cc1COCCc1nc(ccc1C#N)COc1cccc-3n1)n2C[C@@H]1CCO1` [Example 46, (S)-2-((5^5-Cyano-3,8-dioxa-2,5(2,6)-dipyridina-1(1,3)-benzenacyclononaphane-1^4-yl)methyl)-4-(2-methoxyethoxy)-1-(oxetan-2-ylmethyl)-1H-benzo[d]imidazole-6-carboxylic acid], at human GLP-1R [1], the EC50 stood at 7.23 nM and the Emax was 107%. Moreover, at human GLP-1R [2], the EC50 was 24.6 nM and the Emax turned out to be 91.7%.

Take `O=C(O)c1ccc2nc(Cc3ccc4cc3OCCCc3cc(-c5ccc(=O)[nH]c5)ccc3COc3cccc-4n3)n(C[C@@H]3CCO3)c2c1` [Example 80, (S)-1-(Oxetan-2-ylmethyl)-2-((5^4-(6-oxo-1,6-dihydropyridin-3-yl)-3,9-dioxa-2(2,6)-pyridina-1(1,3),5(1,2)-dibenzenacyclononaphane-1^4-yl)methyl)-1H-benzo[d]imidazole-6-carboxylic acid]: on human GLP-1R [1], the concentration giving a half-maximal response (EC50) was 130 nM and the maximum response (Emax) was determined as 84.1%. Also, on human GLP-1R [2], the EC50 worked out at 303 nM and the Emax stood at 56%.

Turning to `CCn1cncc1Cn1c(Cc2ccc3cc2OCCCc2cc(C#N)ccc2COc2cccc-3n2)nc2c(OC)cc(C(=O)O)cc21` [Example 63, 2-((5^4-Cyano-3,9-dioxa-2(2,6)-pyridina-1(1,3),5(1,2)-dibenzenacyclononaphane-1^4-yl)methyl)-1-((1-ethyl-1H-imidazol-5-yl)methyl)-4-methoxy-1H-benzo[d]imidazole-6-carboxylic acid], at human GLP-1R [1], the EC50 came out at 29.9 nM and the Emax is 101%. Moreover, on human GLP-1R [2], the EC50 is 112 nM and the Emax was found to be 81.1%.

The values are drawn from patent US20240343740A1, “MACROCYCLIC GLUCAGON-LIKE PEPTIDE 1 RECEPTOR AGONISTS” (Eli Lilly and Company, priority 2021, published 2024).
